According to patent US20040071777A1, “Solid dispersions of nitrate active principles” (priority 2000, published 2004):

How the values were obtained:
Assay type in all cases: physicochemical
[1] = Dissolution rate of NCX 1022, paddle method, distilled water with 1% w/v Tween 80; conditions: within one hour
Procedure: The dissolution rate of the active ingredient from the solid dispersion produced in Example 6 has been compared with the dissolution rate of the pure active ingredient, using the paddle method described in F.U.X. In detail, 40 mg of the solid dispersion or 5 mg of pure NCX 1022 have been placed in a thermostated container at 37° C.±0.5° C. in 500 ml of distilled water including 1% w/v of Tween 80 and kept under stirring at 100 rpm. The quantity of NCX 1022 dissolved has been spectrophotometrically determined in continuous at a wavelength of 240 nm.

[2] = Dissolution rate of NCX4016 under condition of supersaturation, paddle method, distilled water; conditions: after 5 minutes, from solid dispersion 2
Procedure: Three samples of microspheres have been exactly weighed so as to have a content of nitroaspirine of 30 mg. This quantity corresponds to about 4 times the solubility in water of the active principle.
The dissolution rate of the active principle from the above mentioned 3 solid dispersions has been compared with the dissolution rate of the pure active principle in micronized form, with the paddle method, described in F.U.X. using the following conditions:
dissolution means: distilled water
stirring rate: 100 r.p.m.
The quantity of NCX 4016 released has been evaluated spectrophotometrically in continuous at a wavelength 232 nm.
The samples have been taken by means of a peristaltic pump at 5 minutes intervals and for the total time of one hour.

[3] = Dissolution rate of NCX4016, paddle method (F.U.X.), 1% sodium lauryl sulphate solution; conditions: 900 ml, 37° C., 150 rpm
Procedure: The dissolution rate of the solid dispersion produced in the example 3 has been compared with the dissolution rate of the pure NCX4016 in micronised form using the paddle method described in F.U.X., according to the following operating conditions T=37° C.±0.5° C., stirring rate: 150 rpm, dissolution means: 1% sodium lauryl sulphate solution, dissolution volume: 900 ml.
The quantity of NCX4016 released has been spectrophotometrically evaluated in continuous at a wavelength 232 nm.

SMILES: C[C@]12CCC(=O)C=C1CC[C@@H]1[C@@H]2[C@@H](O)C[C@@]2(C)[C@H]1CC[C@]2(O)C(=O)COC(=O)c1ccc(CO[N+](=O)[O-])cc1 [NCX 1022, hydroxycortisone 21-[(4′-nitroxymethyl)benzoate]]
- solubilisation [1]: 4.3%

SMILES: CC(=O)Oc1ccccc1C(=O)Oc1cccc(CO[N+](=O)[O-])c1 [NCX4016 micronized, 3-(nitroxymethyl)phenyl Ester of 2-acetoxybenzoic Acid]
- quantity dissolved relative to the solubility of the active ingredient in the dissolution means [2]: about twice
- percentage of active principle dissolved ([3]; 5 minutes): 17.9%
- percentage of active principle dissolved ([3]; 10 minutes): 39.2%
- percentage of active principle dissolved ([3]; 15 minutes): 53.5%
- percentage of active principle dissolved ([3]; 20 minutes): 60.7%
- percentage of active principle dissolved ([3]; 25 minutes): 71.4%
- percentage of active principle dissolved ([3]; 30 minutes): 77%
- percentage of active principle dissolved ([3]; 35 minutes): 80.9%
- percentage of active principle dissolved ([3]; 40 minutes): 84.4%
- percentage of active principle dissolved ([3]; 45 minutes): 87%
- percentage of active principle dissolved ([3]; 50 minutes): 88.9%
- percentage of active principle dissolved ([3]; 55 minutes): 90.6%
- percentage of active principle dissolved ([3]; 60 minutes): 91.4%
